From ChEMBL document CHEMBL3046584, “Synthesis, biological activity and docking study of some new isatin Schiff base derivatives” (2012)

Assays:
Type in all cases: functional
[1] = Cytotoxicity against Homo sapiens (human) LS180 cells assessed as cell viability after 72 hr by MTT assay; conditions: LS180, 72 h
[2] = tested on: HeLa; assay: Cytotoxicity against Homo sapiens (human) HeLa cells assessed as cell viability after […] by MTT assay
[3] = tested on: Raji; assay: Cytotoxicity against Homo sapiens (human) Raji cells assessed as cell viability after 72 hr by MTT assay

Structure (SMILES) | IC15 [1] [µM] | IC30 [1] [µM] | IC15 [2] [µM] | IC30 [2] [µM] | IC15 [3] [µM] | IC30 [3] [µM]
Cc1ccccc1N=C1C(=O)Nc2ccccc21 | > 100 | > 100 | 12.3 | 52.6 | 64.8 | > 100
O=C1Nc2ccccc2/C1=N/Nc1ccc([N+](=O)[O-])cc1 | 5.2 | 21.8 | 3 | 12.2 | 17 | > 100
O=C1Nc2ccccc2/C1=N\c1ccc(Cl)cc1 | > 100 | > 100 | 15.4 | 80.2 | 35.4 | 88.1
O=C1Nc2ccccc2/C1=N/c1cccc2ccccc12 | 20.8 | > 100 | 15.8 | 55.9 | 48.8 | > 100
Cc1nc(Cl)cc(/N=C2\C(=O)Nc3ccccc32)n1 | > 100 | > 100 | 17.4 | > 100 | > 100 | > 100
O=C1Nc2ccccc2/C1=N/c1ccc(Cl)cn1 | > 100 | > 100 | 21.6 | 65.1 | > 100 | > 100
O=C1Nc2ccccc2/C1=N/c1nc2ccccc2[nH]1 | > 100 | > 100 | 43.2 | > 100 | 15.6 | > 100
O=C1Nc2ccccc2/C1=N/c1nc(Cl)cs1 | > 100 | > 100 | 3.2 | 35.9 | 57.3 | > 100
Cc1conc1/N=C1\C(=O)Nc2ccccc21 | > 100 | > 100 | 49.6 | > 100 | 30.1 | > 100
